Molecules are shown by their SMILES.

This experiment relates to renal sympathetic tone. Put plainly: Renal pressure-flow measurements in anesthetized swine before and after renal sympatholysis with intrathecal ropivacaine. Format: in vivo, pigs. An excerpt: METHODS: Referring to FIG. 4, nine adult male New Zealand White rabbits were implanted with arterial pressure telemeters and bilateral renal flow probes. One kidney of each rabbit was surgically denervated. The rabbits were acclimated to a procedure room and, after a two-week recovery, measurements of arterial pressure and bilateral renal blood flow were obtained in the conscious state. Referring to FIG. 5, ten pigs were induced and then anesthesia was maintained via ketamine-midazolam IV infusion. T9/T10 intrathecal and arterial access were established. A Volcano ComboWire® was placed in the renal artery to measure intravascular pressure and flow velocity. Intrathecal ropivacaine was given to reduce renal sympathetic tone, and renal pressure-flow measurements were repeated.
Referring to FIG. 6, Arterial pressure and renal blood flow measurements were used to estimate resistive flow as a function of time, which was in turn used to derive the renal pressure-flow time-varying transfer function (TVTF). TVTF analysis focused on known sympathetic vaso-motor frequencies (0.2-0.75 Hz in rabbits, 0.03-0.1 Hz in pigs). Control of renal vascular resistance in different states of innervation was characterized by occurrence plots of admittance gain and phase shift of the TVTF. Admittance gain reflects the normalized magnitude of oscillations in renal blood flow; phase shift reflects the timing of renal blood flow oscillations relative to arterial pressure.
Table 2 (below) illustrates the mean hemodynamics of the pigs before (“Baseline”) and after renal sympatholysis with intrathecal ropivacaine (“Ropi”).

Turning to `CCCN1CCCC[C@H]1C(=O)Nc1c(C)cccc1C` [Ropi, ropivacaine], the “Renal Blood Flow Velocity” value (mean hemodynamics of anesthetized pigs after renal sympatholysis with intrathecal ropivacaine (T9/T10), baseline 24 +/− 3) came out at 28 ± 5 cm/s. The “Arterial Pressure” value (mean hemodynamics of anesthetized pigs after renal sympatholysis with intrathecal ropivacaine (T9/T10), baseline 83 +/− 4) is 72 +/− 7 mmHg. Also, the “Heart Rate” value (mean hemodynamics of anesthetized pigs after renal sympatholysis with intrathecal ropivacaine (T9/T10), baseline 85 +/− 8) is on record as 71 +/− 5 bpm. For the same molecule, the “Phase asynchrony of the renal pressure-flow time-varying transfer function at known sympathetic vasomotor frequencies” value (pigs, state PRIOR to intrathecal ropivacaine compared with after (0.03-0.1 Hz)) is “more phase asynchrony”.

The record behind these values is patent publication US11896423B2, “Time-varying quantification of capacitive and resistive arterial blood flow” (Board of Regents of the University of Nebraska, priority 2018, dated 2024).
